Measurements reported in ChEMBL document CHEMBL4028910, “Discovery of Small-Molecule Inhibitors of Ubiquitin Specific Protease 7 (USP7) Using Integrated NMR and in Silico Techniques” (J Med Chem, 2017).

molecular target: T1, Ubiquitin carboxyl-terminal hydrolase 7 (Homo sapiens, UniProt Q93009); test: Inhibition of native full length C-terminal USP7 (unknown origin) using ubiquitin-Rho110 as substrate incubated for 1 hr by fluorescence assay
T1 sequence (Q93009 whole entry): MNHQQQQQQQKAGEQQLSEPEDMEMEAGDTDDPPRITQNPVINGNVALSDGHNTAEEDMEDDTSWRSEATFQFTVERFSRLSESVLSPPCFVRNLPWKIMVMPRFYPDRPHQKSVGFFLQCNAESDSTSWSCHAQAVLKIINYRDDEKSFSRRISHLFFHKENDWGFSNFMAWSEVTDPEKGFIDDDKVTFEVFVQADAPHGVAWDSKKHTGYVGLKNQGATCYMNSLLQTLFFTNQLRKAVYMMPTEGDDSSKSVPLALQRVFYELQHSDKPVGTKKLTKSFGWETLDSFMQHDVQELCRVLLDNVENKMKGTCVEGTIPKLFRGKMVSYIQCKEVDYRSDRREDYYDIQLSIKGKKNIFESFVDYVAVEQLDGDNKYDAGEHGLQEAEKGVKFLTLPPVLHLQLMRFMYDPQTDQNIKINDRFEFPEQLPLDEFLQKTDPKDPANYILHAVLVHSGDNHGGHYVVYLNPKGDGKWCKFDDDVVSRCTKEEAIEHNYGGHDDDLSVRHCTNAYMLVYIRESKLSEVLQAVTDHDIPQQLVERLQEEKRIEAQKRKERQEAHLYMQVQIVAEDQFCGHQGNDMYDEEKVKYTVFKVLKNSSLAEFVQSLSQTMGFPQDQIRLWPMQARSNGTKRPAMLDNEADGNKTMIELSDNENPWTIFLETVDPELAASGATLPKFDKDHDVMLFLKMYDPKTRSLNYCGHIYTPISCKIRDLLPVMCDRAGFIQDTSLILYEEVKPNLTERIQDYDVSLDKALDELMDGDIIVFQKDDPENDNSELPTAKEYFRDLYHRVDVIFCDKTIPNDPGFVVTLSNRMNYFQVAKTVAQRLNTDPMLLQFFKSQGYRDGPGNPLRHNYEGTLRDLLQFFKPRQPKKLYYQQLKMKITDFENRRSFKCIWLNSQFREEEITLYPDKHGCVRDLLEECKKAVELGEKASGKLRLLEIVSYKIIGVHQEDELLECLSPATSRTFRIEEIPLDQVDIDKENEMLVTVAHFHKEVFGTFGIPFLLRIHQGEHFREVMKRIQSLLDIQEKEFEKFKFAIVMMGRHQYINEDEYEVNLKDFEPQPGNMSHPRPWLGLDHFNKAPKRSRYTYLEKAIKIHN

| IC50 | Structure (SMILES) |
| --- | --- |
| 8.5 µM | Nc1nc(N)c(-c2ccc(O)cc2)cc1-c1ccc(O)cc1 |
| 11.1 µM | Nc1ncc(-c2ccc(O)cc2)cc1-c1ccc(O)cc1 |
| 2.5 µM | CCc1c(-c2cccc(C#N)c2)cnc(N)c1-c1ccc(O)cc1 |
| > 200 µM | N#Cc1c(-c2ccc(O)cc2)cnc(N)c1-c1ccc(O)cc1 |
| 33.2 µM | Nc1ncc(-c2ccccc2Cl)cc1-c1ccc(O)cc1 |
| 2.5 µM | CCc1c(-c2ccc(O)cc2)cnc(N)c1-c1ccc(O)cc1 |
| 15.1 µM | CC(=O)Nc1cccc(-c2cnc(N)c(-c3ccc(O)cc3)c2)c1 |
| 7.6 µM | Cc1c(-c2ccc(O)cc2)cnc(N)c1-c1ccc(O)cc1 |
| 0.61 µM | CCc1c(-c2ccc(O)cc2)cnc(N)c1-c1ccc2[nH]ncc2c1 |
| 22.4 µM | CCc1c(-c2ccc(O)cc2)cnc(N)c1-c1ccccc1 |
| 13.6 µM | CCCc1c(-c2ccc(O)cc2)cnc(N)c1-c1ccc(O)cc1 |
| 5.2 µM | CCc1c(-c2ccc(O)cc2)cnc(N)c1-c1cccc(C#N)c1 |
| 9.6 µM | CCc1c(-c2ccccc2)cnc(N)c1-c1ccc(O)cc1 |
| 21.4 µM | CC(C)c1c(-c2ccc(O)cc2)cnc(N)c1-c1ccc(O)cc1 |

The next lines start with the molecule.

| Structure (SMILES) | IC50 |
| --- | --- |
| Oc1ccc(-c2nc(C3CCNC3)no2)cc1 (stereo unspecified) | 132 µM |
| CCc1c(-c2ccc(C(=O)NC)nc2)cnc(N)c1-c1ccc(O)cc1 | 1.34 µM |
| CN1CCC(c2noc(-c3ccc(O)cc3)n2)CC1 | 79.2 µM |
| CN1CCC(c2noc(-c3ccc(O)cc3)n2)C1 (stereo unspecified) | 131 µM |
| Fc1cccc(OCC2CCNCC2)c1 | > 2000 µM |
| CCc1c(-c2ccc3cn[nH]c3c2)cnc(N)c1-c1ccc(O)cc1 | 0.48 µM |
| Oc1ccc(-c2cncc(-c3ccc(O)cc3)c2)cc1 | > 50 µM |
| Oc1ccc(-c2ncc(C3CCNCC3)o2)c(F)c1 | 18.4 µM |
| Oc1ccc(-c2ncc(C3CCNCC3)o2)cc1 | 32.8 µM |
| Oc1ccc(-c2nc(C3CCNCC3)co2)cc1 | 85.2 µM |
| Oc1ccc(-c2nc(C3CCNCC3)no2)cc1 | 97.7 µM |

molecular target: T1, Ubiquitin carboxyl-terminal hydrolase 7; test: Binding affinity to human His-tagged and [15N-13C-2H], delta1[13CH3]-Ile, [13CH3]-Leu/Val and [13CH3]-Met-labeled USP7-catalytic domain (208 to 554 residues) expressed in Escherichia coli Rosetta 2 (DE3) cells by 2D[1H-15N]-based TROSY spectrum NMR analysis

| Kd | Structure (SMILES) |
| --- | --- |
| 12 to 27 µM | CN1CCC(c2noc(-c3ccc(O)cc3)n2)CC1 |
| 12 to 27 µM | Oc1ccc(-c2nc(C3CCNCC3)no2)cc1 |

molecular target: T1, Ubiquitin carboxyl-terminal hydrolase 7; test: Inhibition of USP7 in human SJSA cells assessed as increase in ubiquitinated MDM2 level after 16 hrs in presence of MG132 by MSD assay; format: cell-based

| EC50 | Structure (SMILES) |
| --- | --- |
| 36.5 µM | Nc1nc(N)c(-c2ccc(O)cc2)cc1-c1ccc(O)cc1 |
| 2.58 µM | CCc1c(-c2ccc(C(=O)NC)nc2)cnc(N)c1-c1ccc(O)cc1 |
| 37.5 µM | CCc1c(-c2ccc(O)cc2)cnc(N)c1-c1cccc(C#N)c1 |
| 0.3 µM | CCc1c(-c2ccc3[nH]ncc3c2)cnc(N)c1-c1ccc(O)cc1 |
